Measurements published in patent US9113629B2, “4-amino-6-(4-substituted-phenyl)-picolinates and 6-amino-2-(4-substituted-phenyl)-pyrimidine-4-carboxylates and their use as herbicides” (DOW AGROSCIENCES LLC, priority 2013, dated 2015).
Like-named read-outs stand apart in the source and are kept apart here.

What was measured:
[1] = system: Key Broadleaf Weed and Crop Species; experiment: Post-emergent Test II herbicidal activity (Table 5); assay type: in vivo; settings: post-emergence, 336 h, 14 days after application; for pest or weed control at 70 g/ha: application rate 70 g ai/ha; for pest or weed control at 140 g/ha: application rate 140 g ai/ha
Outline: (§1)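 Plants grown in Metro-Mix 360 (pH 6.0–6.8) in a greenhouse (~15 h photoperiod, 23–29 °C day) to first or second true leaf stage, then sprayed with compound in acetone/DMSO/aqueous crop-oil-surfactant carrier at 187 L/ha by track sprayer. Injury visually scored 0–100% versus untreated plants after 14 d.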

[2] = system: Key Grass and Sedge Weeds as well as Grass Crops; experiment: Post-emergent Test II herbicidal activity (Table 6); assay type: in vivo; settings: post-emergence, 336 h; for pest or weed control at 70 g/ha: 70 g ai/ha; for pest or weed control at 140 g/ha: 140 g ai/ha
Outline: as §1

[3] = ABUTH: velvetleaf (Abutilon theophrasti), read-out: Visual Growth Reduction (%) 14 Days After Application, ABUTH
[4] = AMARE: redroot pigweed (Amaranthus retroflexus), read-out: Visual Growth Reduction (%) 14 Days After Application, AMARE
[5] = BRSNN: oilseed-rape, canola (Brassica napus), read-out: Visual Growth Reduction (%) 14 Days After Application, BRSNN
[6] = CHEAL: lambsquarters (Chenopodium album), read-out: Visual Growth Reduction (%) 14 Days After Application, CHEAL
[7] = EPHHL: wild poinsettia (Euphorbia heterophylla), read-out: Visual Growth Reduction (%) 14 Days After Application, EPHHL
[8] = HELAN: sunflower (Helianthus annuus), read-out: Visual Growth Reduction (%) 14 Days After Application, HELAN
[9] = VIOTR: wild pansy (Viola tricolor), read-out: Visual Growth Reduction (%) 14 Days After Application, VIOTR
[10] = CYPES: yellow nutsedge (Cyperus esculentus), read-out: Visual Growth Reduction (%) 14 Days After Application, CYPES
[11] = DIGSA: crabgrass (Digitaria sanguinalis), read-out: Visual Growth Reduction (%) 14 Days After Application, DIGSA
[12] = ECHCG: barnyardgrass (Echinochloa crus-galli), read-out: Visual Growth Reduction (%) 14 Days After Application, ECHCG
[13] = ORYSA: rice (Oryza sativa), crop, read-out: Visual Growth Reduction (%) 14 Days After Application, ORYSA
[14] = SETFA: giant foxtail (Setaria faberi), read-out: Visual Growth Reduction (%) 14 Days After Application, SETFA
[15] = SORVU: grain sorghum (Sorghum vulgare), read-out: Visual Growth Reduction (%) 14 Days After Application, SORVU
[16] = TRZSS (wheat, Triticum aestivum), crop, read-out: Visual Growth Reduction (%) 14 Days After Application, TRZSS
[17] = ZEAMX: maize, corn (Zea mays), crop, read-out: Visual Growth Reduction (%) 14 Days After Application, ZEAMX

Structure (SMILES) | pest or weed control at 70 g/ha [1, 3] | pest or weed control at 140 g/ha [1, 3] | pest or weed control at 70 g/ha [1, 4] | pest or weed control at 140 g/ha [1, 4] | pest or weed control at 70 g/ha [1, 5] | pest or weed control at 140 g/ha [1, 5] | pest or weed control at 70 g/ha [1, 6] | pest or weed control at 140 g/ha [1, 6] | pest or weed control at 70 g/ha [1, 7] | pest or weed control at 140 g/ha [1, 7] | pest or weed control at 70 g/ha [1, 8] | pest or weed control at 140 g/ha [1, 8] | pest or weed control at 70 g/ha [1, 9] | pest or weed control at 140 g/ha [1, 9] | pest or weed control at 70 g/ha [2, 10] | pest or weed control at 140 g/ha [2, 10] | pest or weed control at 70 g/ha [2, 11] | pest or weed control at 140 g/ha [2, 11] | pest or weed control at 140 g/ha [2, 12] | pest or weed control at 70 g/ha [2, 13] | other results
COC(=O)c1nc(-c2ccc(OC(F)F)c(F)c2)c(F)c(N)c1Cl [Compound 152] | 85 to 94% | 85 to 94% | 85 to 94% | 85 to 94% | 85 to 94% | 85 to 94% | 85 to 94% | 85 to 94% | 95 to 100% | 95 to 100% | 75 to 84% | 85 to 94% | 0 to 29% | 0 to 29% | 60 to 74% | 95 to 100% | 45 to 59% | 75 to 84% | 85 to 94% | 0 to 29% | pest or weed control at 140 g/ha [2, 13]: 0 to 29%; pest or weed control at 70 g/ha [2, 14]: 0 to 29%; pest or weed control at 140 g/ha [2, 14]: 45 to 59%; pest or weed control at 70 g/ha [2, 15]: 45 to 59%; pest or weed control at 140 g/ha [2, 15]: 45 to 59%; pest or weed control at 70 g/ha [2, 16]: 0 to 29%; pest or weed control at 140 g/ha [2, 16]: 0 to 29%; pest or weed control at 70 g/ha [2, 17]: 95 to 100%; pest or weed control at 140 g/ha [2, 17]: 95 to 100%; melting point: 112 to 114 °C
Nc1c(F)c(-c2ccc(Br)c(F)c2)nc(C(=O)O)c1Cl [Compound 21] | 95 to 100% | 95 to 100% | 95 to 100% | 95 to 100% | 95 to 100% | 95 to 100% | 95 to 100% | 95 to 100% | 95 to 100% | 95 to 100% | 95 to 100% | 95 to 100% | 95 to 100% | 95 to 100% | 95 to 100% | 95 to 100% | 75 to 84% | 75 to 84% | 95 to 100% | 0 to 29% | pest or weed control at 70 g/ha [2, 12]: 95 to 100%; pest or weed control at 140 g/ha [2, 13]: 0 to 29%; pest or weed control at 70 g/ha [2, 14]: 95 to 100%; pest or weed control at 140 g/ha [2, 14]: 95 to 100%; pest or weed control at 70 g/ha [2, 15]: 95 to 100%; pest or weed control at 140 g/ha [2, 15]: 95 to 100%; pest or weed control at 70 g/ha [2, 16]: 60 to 74%; pest or weed control at 140 g/ha [2, 16]: 60 to 74%; pest or weed control at 70 g/ha [2, 17]: 95 to 100%; pest or weed control at 140 g/ha [2, 17]: 95 to 100%; melting point: 117 to 120 °C
COC(=O)c1nc(-c2ccc(I)c(F)c2)c(F)c(N)c1Cl [Compound 132] | 95 to 100% | 95 to 100% | 95 to 100% | 95 to 100% | 95 to 100% | 95 to 100% | 95 to 100% | 95 to 100% | 95 to 100% | 95 to 100% | 95 to 100% | 95 to 100% | 95 to 100% | 95 to 100% | 45 to 59% | 85 to 94% | 85 to 94% | 85 to 94% | 75 to 84% | 0 to 29% | pest or weed control at 70 g/ha [2, 12]: 85 to 94%; pest or weed control at 140 g/ha [2, 13]: 0 to 29%; pest or weed control at 70 g/ha [2, 14]: 0 to 29%; pest or weed control at 140 g/ha [2, 14]: 60 to 74%; pest or weed control at 70 g/ha [2, 15]: 85 to 94%; pest or weed control at 140 g/ha [2, 15]: 95 to 100%; pest or weed control at 70 g/ha [2, 16]: 0 to 29%; pest or weed control at 140 g/ha [2, 16]: 30 to 44%; pest or weed control at 70 g/ha [2, 17]: 95 to 100%; pest or weed control at 140 g/ha [2, 17]: 95 to 100%; melting point: 138 to 140 °C
